“And” between values parts separate entries of the source, which are not always exact repeats. Equal values may be shown once. “Also recorded” adds a separate entry of the source. Read-outs that look alike come from different tables or passages of the source. Where only a bound is given, the exact number is not on record here.

The source of these data is patent US20240225053A9 (priority 2021, published 2024).

Experiment [1] has as its system Clostridium perfringens SM101 (CPE toxin producer). Type of experiment: cell-based. More on the design: key to Agglomeration: Good: Agglomeration effect observed; Poor: No agglomeration effect observed. The following applies: 500 mM.
The test system of experiment [2] is Clostridium perfringens CNEOP004. Format: cell-based. More on the design: unit not given here. The following applies: bacterial cells, 500 mM, 8 hours, diluted 100 times.
In experiment [3] the test system is Clostridium perfringens ATCC10873. Format: cell-based. The following applies: for Shape: 8 hours; for Agglomeration (text) / Shape of the bacterial cells: Example 2 strains.
The test system of experiment [4] is Clostridium perfringens CNEOP004 (netB toxin producer). Type of experiment: cell-based. Details: key to Agglomeration: Good: Agglomeration effect observed; Poor: No agglomeration effect observed. The following applies: 500 mM.
Experiment [5] relates to Clostridium perfringens ATCC10873. Format: cell-based. The following applies: bacterial cells, 8 hours, diluted 100 times. Details: unit not given here.
Experiment [6] relates to Salmonella enterica IAM1648. Type of experiment: cell-based. More on the design: key: Good: Those in which agglomeration observed under upright microscope; Poor: Those in which no agglomeration observed under upright microscope.
For experiment [7], the system named is Bifidobacterium animalis JCM1190. Format: cell-based. More on the design: key to Agglomeration: Good: Those in which agglomeration observed under upright microscope; Poor: Those in which no agglomeration observed under upright microscope.
In experiment [8] the test system is Clostridium perfringens ATCC10873. Format: cell-based. Details: key: Good: Those in which agglomeration observed under upright microscope; Poor: Those in which no agglomeration observed under upright microscope. The following applies: Table 4, 500 mM.
Experiment [9] shares this test system. Format: cell-based. More on the design: key: Good: Agglomeration effect observed; Poor: No agglomeration effect observed.
Experiment [10] relates to Lactobacillus casei ATCC393. Format: cell-based. Details: key to Agglomeration: Good: Those in which agglomeration observed under upright microscope; Poor: Those in which no agglomeration observed under upright microscope.
For experiment [11], the system named is Clostridium perfringens SM101. Type of experiment: cell-based. The following applies: bacterial cells, 500 mM, 8 hours, diluted 100 times. Details: unit not given here.
For the next experiment, the system named is Escherichia coli MG1655. Format: cell-based. More on the design: key: Good: Those in which agglomeration observed under upright microscope; Poor: Those in which no agglomeration observed under upright microscope.
In experiment [12] the test system is Clostridium perfringens ATCC10873. Format: cell-based. The following applies: for Settling: 37° C., 8 hours; for Concentration required for settling / at which settling was confirmed: optical density about 2.0 at 660 nm. More on the design: key to Settling: Good: Settling effect observed; Poor: No settling effect observed.
In experiment [13] the test system is mixed bacterial cells of Clostridium perfringens ATCC10873, Salmonella enterica IAM1648 and E. coli MG1655. Type of experiment: cell-based. The following applies: 500 mM in combination with Arabic Gum 1%; OD660 about 2.0, 37° C.
A further experiment has as its system Clostridium perfringens. Format: in vivo, chickens (broilers). The following applies: for Dead birds Total: 500 chickens.
On the set-up of experiment [14]: species or system chickens (broilers, UK Chunky). The following applies: in vivo.
Setting [15] is: Table 2-1, 500 mM, w/AG 1%, 8 hours.
The mark [16] stands for this setting: Table 2-1, 500 mM, without AG, 8 hours.
The mark [17] stands for this setting: Day 0-14, BMD 55 ppm, Coated-KCl 47 ppm in feed.
Where [18] appears, read: Day 15-28, BMD 55 ppm, Coated-KCl 47 ppm in feed.
[19] abbreviates: Day 29-42, BMD 55 ppm, Coated-KCl 47 ppm in feed.

With `[Cl-].[Cl-].[Mg+2]` [MgCl2], the Shape result in experiment [1] (w/AG 1%, 8 hours) is “Rod-shaped”; in experiment [1] (without AG, 8 hours), “Rod-shaped”; in experiment [3] (500 mM, w/AG 1%), “Rod-shaped”; in experiment [3] (500 mM, without AG), “Rod-shaped”; in experiment [4] (w/AG 1%, 8 hours) it was “Rod-shaped”; in experiment [4] (without AG, 8 hours), “Rod-shaped”. Moreover, the Agglomeration result in experiment [1] (Table 2-2, w/AG 1%, 8 hours) is recorded as “Good”; in experiment [1] (Table 2-2, without AG, 8 hours), “Poor”; in experiment [1] (Table 3-2, w/AG 1%), “Good”; in [1] (Table 3-2, without AG), “Good”; in experiment [4] (Table 2-3, w/AG 1%, 8 hours), “Good”; in [4] (Table 2-3, without AG, 8 hours), “Poor”. Besides, the Agglomeration result in experiment [4] (Table 3-3, w/AG 1%) was “Good”; in [4] (Table 3-3, without AG), “Good”; in experiment [6], “Poor and Good”; in experiment [7], “Poor”; in experiment [8] (W/AG 1%) it was “Good”; in [8] (without AG), “Poor”. The Agglomeration entry in [9] (setting [15]) is “Good”; in experiment [9] (setting [16]) it was “Poor”; in [9] (Table 3-1, 500 mM, W/AG 1%), “Good”; in experiment [9] (Table 3-1, 500 mM, without AG) it was “Poor”; in experiment [10] it was “Poor and Good”; in the experiment on Escherichia coli MG1655, “Poor and Good”. Further, the Zeta potential in experiment [2] (w/AG 1%) is −11.8; in [2] (without AG), −12; in experiment [5] (500 mM, W/AG 1%), −12.9; in experiment [5] (500 mM, without AG) it was −3.2; in experiment [11] (w/AG 1%) it was −10.2; in experiment [11] (without AG) it was −12.1. Besides, the “Agglomeration (text)” value in experiment [3] (absence of AG) was “no agglomeration was observed”; in experiment [3] (coexistence with AG) it was “agglomeration of Clostridium perfringens was observed”. Also, the “Shape of the bacterial cells” value in experiment [3] (absence of AG) is reported as “shape as bacilli remained unchanged”. The “Settling effect” value in [12] (500 mM, absence of AG) is listed as “did not exert a settling effect”; in experiment [12] (500 mM, in combination with AG), “exerted a settling effect”. In addition, the Settling result is listed as “Good” in experiment [12] (500 mM, w/AG 1%) and “Poor” in experiment [12] (500 mM, without AG). Further, the “Concentration required for settling / at which settling was confirmed” value in [12] (absence of AG) is reported as “over 500 mM”.
As to `[Cl-].[Na+]` [NaCl], the Shape entry in [3] (500 mM, w/AG 1%) is reported as “Spheroidal”; in [3] (500 mM, without AG), “Spheroidal”. Besides, the “Agglomeration (text)” value in experiment [3] (absence of AG) was “did not agglomerate”; in experiment [3] (coexistence with AG) it was “agglomerated in the state of cocci”. Moreover, in experiment [3] (absence of AG), the “Shape of the bacterial cells” value is recorded as “changed from bacilli to cocci”. The Agglomeration result is recorded as “Good” in experiment [9] (setting [15]) and “Poor” in [9] (setting [16]). Besides, the Settling result in experiment [12] (20 mM, without AG) is “Poor”; in experiment [12] (100 mM, without AG), “Poor”; in experiment [12] (500 mM, w/AG 1%), “Good”; in experiment [12] (500 mM, without AG), “Good”. Also, the “Agglomeration of the three types of enteric bad bacteria” value in experiment [13] was “can quickly agglomerate”.
`[Ca+2].[Cl-].[Cl-]` [CaCl2]: the Shape result in experiment [1] (without AG, 8 hours) was “Rod-shaped”; in [3] (20 mM, without AG), “Rod-shaped”; in experiment [3] (100 mM, without AG), “Rod-shaped”; in experiment [4] (without AG, 8 hours) it was “Rod-shaped”. The Agglomeration entry in [1] (Table 2-2, without AG, 8 hours) was “Good”; in experiment [1] (Table 3-2, without AG), “Good”; in [4] (Table 2-3, without AG, 8 hours) it was “Good”; in [4] (Table 3-3, without AG), “Good”; in experiment [6], “Poor”; in experiment [7], “Poor”. In addition, the Agglomeration result in experiment [8] (without AG) is reported as “Good”; in [9] (Table 2-1, 20 mM, without AG, 8 hours), “Good”; in experiment [9] (Table 2-1, 100 mM, without AG, 8 hours), “Good”; in [9] (Table 3-1, 20 mM, without AG) it was “Good”; in experiment [9] (Table 3-1, 100 mM, without AG), “Good”; in [10], “Poor”. For the same compound, the Agglomeration entry in the experiment with Escherichia coli MG1655 is “Poor”. The Zeta potential is on record as −12.3 in experiment [2] (without AG); −4.4 in [5] (20 mM, without AG); −4.0 in experiment [5] (100 mM, without AG); −14.3 in [11] (without AG). In addition, the “Concentration at which bacterial cells agglomerated” value in [3] (absence of AG) is recorded as no less than 20 mM. Moreover, the “Agglomeration (text)” value in experiment [3] (absence of AG) is “agglomerated in the state of bacilli”. For the same compound, the Settling result in experiment [12] (20 mM, without AG) is listed as “Poor”; in [12] (100 mM, without AG), “Poor”.
On to `[Cl][Fe][Cl]` [FeCl2], for which the Shape result in [1] (without AG, 8 hours) is on record as “Rod-shaped”; in experiment [3] (10 mM, without AG), “Rod-shaped”; in experiment [3] (50 mM, without AG), “Rod-shaped”; in experiment [4] (without AG, 8 hours) it was “Rod-shaped”. Besides, the Agglomeration entry is “Good” in experiment [1] (Table 2-2, without AG, 8 hours); “Good” in experiment [1] (Table 3-2, without AG); “Good” in experiment [4] (Table 2-3, without AG, 8 hours); “Good” in experiment [4] (Table 3-3, without AG); “Poor” in [6]; “Good” in experiment [7]. The Agglomeration entry in [8] (without AG) is recorded as “Good”; in experiment [9] (Table 2-1, 10 mM, without AG, 8 hours), “Good”; in [9] (Table 2-1, 50 mM, without AG, 8 hours), “Good”; in experiment [9] (Table 3-1, 10 mM, without AG), “Good”; in [9] (Table 3-1, 50 mM, without AG), “Good”; in [10] it was “Good”. Also, the Agglomeration entry with Escherichia coli MG1655 is “Poor”. Besides, the Zeta potential in experiment [2] (without AG) is 21.5; in experiment [5] (10 mM, without AG), 0.8; in experiment [5] (50 mM, without AG), 20.7; in experiment [11] (without AG), 4.1. Moreover, the “Concentration at which bacterial cells agglomerated” value in [3] (absence of AG) is listed as no less than 10 mM. Also, in experiment [3] (absence of AG), the “Agglomeration (text)” value is “showed an agglomeration effect; also recorded: agglomerated in the state of bacilli”. Moreover, the “Agglomeration effect” value in experiment [7] and in [10] was “showed an agglomeration effect” in each case. The Settling result in experiment [12] (10 mM, without AG) was “Good”; in experiment [12] (50 mM, without AG) it was “Good”. Moreover, in [12] (absence of AG), the “Concentration required for settling / at which settling was confirmed” value is no less than 10 mM.
As for bacitracin methylene disalicylate [BMD], the “Dead birds Total” value in the experiment on Clostridium perfringens (setting [17]) is on record as 19; in the experiment on Clostridium perfringens (setting [18]), 10; with Clostridium perfringens (setting [19]), 6. The “Dead birds NE Caused” value with Clostridium perfringens (setting [17]) is on record as 0; in the experiment with Clostridium perfringens (setting [18]), 4; in the experiment on Clostridium perfringens (setting [19]) it was 0. Moreover, the “NE Caused Mortality” value in the experiment on Clostridium perfringens (average, 6 weeks, BMD 55 ppm, Coated-KCl 47 ppm in feed) is recorded as 0.80. Further, the “NE Lesion Score” value in the experiment on Clostridium perfringens (day 17, three birds per pen, 0 = none to 3 = severe, average, BMD 55 ppm, Coated-KCl 47 ppm) amounted to 0.30. In addition, in the experiment on Clostridium perfringens (text b129), the “Mortality reduced to, as compared with Challenge Control” value is given as 13.2%. In addition, in experiment [14], the “BWG %: versus Control (Non treatment)” value is 106.0% and 103.9% and 103.5%. Also, in [14], the “Weight gain as compared with Control (Non treatment), in words” value is “weight gain was improved”.
